Test results from ChEMBL document CHEMBL6182857, “Targeting biofilm formation in Candida albicans with halogenated pyrrolopyrimidine derivatives” (Eur J Med Chem, 2025).
The source made the active and inactive calls. The rule behind the calls is not given here.

How the values were obtained:
Candida albicans [1] = test: Antibiofilm activity against fluconazole-resistant Candida albicans DAY185 assessed as inhibition of biofilm formation at 1 ug/ml measured after 24 hrs by crystal violet staining based analysis relative to control; assay type: functional
Candida albicans [2] = test: Antibiofilm activity against fluconazole-resistant Candida albicans DAY185 assessed as inhibition of biofilm formation at 5 ug/ml measured after 24 hrs by crystal violet staining based analysis relative to control; assay type: functional, organism-based; conditions: dose 5.0 µg/ml

SMILES	inhibition at 1 µg/mL (Candida albicans [1])	inhibition (Candida albicans [2])
OC(Cn1cncn1)(Cn1cncn1)c1ccc(F)cc1F [FLUCONAZOLE]	< 12%	
Clc1ccc(CCC(Cn2ccnc2)Sc2c(Cl)cccc2Cl)cc1 (stereo not drawn) [BUTOCONAZOLE]	56%	Active
